According to PubChem BioAssay (NCI):
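Where inhibition never reached the appropriate level, the endpoint shown equals the highest concentration tested. Otherwise, values were interpolated linearly from a five-concentration, 48-hour dose response in 96-well plates. GI50 marks 50% less growth. TGI marks complete inhibition of growth.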

Assays:
Test in all cases: DTP human tumour cell line panel, 48 h
MDA-MB-231 breast = test system: MDA-MB-231 breast
OVCAR-4 ovarian = test system: OVCAR-4 ovarian
MDA-MB-435 = test system: MDA-MB-435
SK-MEL-2 melanoma = test system: SK-MEL-2 melanoma
SNB-75 CNS = test system: SNB-75 CNS
NCI/ADR-RES ovarian = test system: NCI/ADR-RES ovarian
PC-3 prostate = test system: PC-3 prostate
SF-539 CNS = test system: SF-539 CNS
CAKI-1 renal = test system: CAKI-1 renal
SNB-19 CNS = test system: SNB-19 CNS
SR leukemia = test system: SR leukemia
HOP-62 NSCLC = test system: HOP-62 NSCLC
NCI-H522 lung = test system: NCI-H522 lung
SK-MEL-5 melanoma = test system: SK-MEL-5 melanoma
UACC-257 melanoma = test system: UACC-257 melanoma
SK-MEL-28 melanoma = test system: SK-MEL-28 melanoma
A498 renal = test system: A498 renal
SF-295 CNS = test system: SF-295 CNS
DU-145 prostate = test system: DU-145 prostate
HT29 colon = test system: HT29 colon
NCI-H23 lung = test system: NCI-H23 lung
SF-268 CNS = test system: SF-268 CNS
HS 578T breast = test system: HS 578T breast
KM12 colon = test system: KM12 colon
OVCAR-5 ovarian = test system: OVCAR-5 ovarian
SW-620 colon = test system: SW-620 colon
T-47D breast = test system: T-47D breast
LOX IMVI melanoma = test system: LOX IMVI melanoma
HL-60(TB) leukemia = test system: HL-60(TB) leukemia
HCT-116 colon = test system: HCT-116 colon
A549 NSCLC = test system: A549 NSCLC
OVCAR-3 ovarian = test system: OVCAR-3 ovarian
BT-549 breast = test system: BT-549 breast
U251 CNS = test system: U251 CNS
CCRF-CEM leukemia = test system: CCRF-CEM leukemia
M14 melanoma = test system: M14 melanoma
RPMI-8226 leukemia = test system: RPMI-8226 leukemia
K-562 leukemia = test system: K-562 leukemia
NCI-H226 lung = test system: NCI-H226 lung
SN12C renal = test system: SN12C renal
IGROV1 ovarian = test system: IGROV1 ovarian
HCT-15 colon = test system: HCT-15 colon
COLO 205 colon = test system: COLO 205 colon
MCF7 breast = test system: MCF7 breast
OVCAR-8 ovarian = test system: OVCAR-8 ovarian
SK-OV-3 ovarian = test system: SK-OV-3 ovarian
UO-31 renal = test system: UO-31 renal
786-0 renal = test system: 786-0 renal
NCI-H460 lung = test system: NCI-H460 lung
ACHN renal = test system: ACHN renal
MOLT-4 leukemia = test system: MOLT-4 leukemia
MALME-3M melanoma = test system: MALME-3M melanoma
TK-10 renal = test system: TK-10 renal
RXF 393 renal = test system: RXF 393 renal
HCC-2998 colon = test system: HCC-2998 colon
HOP-92 NSCLC = test system: HOP-92 NSCLC
UACC-62 melanoma = test system: UACC-62 melanoma

C[C@]12CC[C@@H]3c4ccc(Oc5nc(N6CC6)nc(N6CC6)n5)cc4CC[C@H]3[C@@H]1CCC2=O
GI50 (MDA-MB-231 breast): 10200 nM
TGI (MDA-MB-231 breast): 25200 nM
GI50 (OVCAR-4 ovarian): 3380 nM
TGI (OVCAR-4 ovarian): 15200 nM
GI50 (MDA-MB-435): 5430 nM
TGI (MDA-MB-435): 22000 nM
GI50 (SK-MEL-2 melanoma): 3160 nM
TGI (SK-MEL-2 melanoma): 8970 nM
GI50 (SNB-75 CNS): 2550 nM
TGI (SNB-75 CNS): 14900 nM
GI50 (NCI/ADR-RES ovarian): 4600 nM
TGI (NCI/ADR-RES ovarian): 33200 nM
GI50 (PC-3 prostate): 3460 nM
TGI (PC-3 prostate): 21800 nM
GI50 (SF-539 CNS): 2200 nM
TGI (SF-539 CNS): 7430 nM
GI50 (CAKI-1 renal): 641 nM
TGI (CAKI-1 renal): 43700 nM
GI50 (SNB-19 CNS): 7250 nM
TGI (SNB-19 CNS): 21500 nM
GI50 (SR leukemia): 351 nM
TGI (SR leukemia): 11400 nM
GI50 (HOP-62 NSCLC): 2230 nM
TGI (HOP-62 NSCLC): 15400 nM
GI50 (NCI-H522 lung): 1910 nM
TGI (NCI-H522 lung): 4570 nM
GI50 (SK-MEL-5 melanoma): 1540 nM
TGI (SK-MEL-5 melanoma): 3130 nM
GI50 (UACC-257 melanoma): 2890 nM
TGI (UACC-257 melanoma): 17500 nM
GI50 (SK-MEL-28 melanoma): 6010 nM
TGI (SK-MEL-28 melanoma): 42800 nM
GI50 (A498 renal): 1880 nM
TGI (A498 renal): 5790 nM
GI50 (SF-295 CNS): 1170 nM
TGI (SF-295 CNS): 15300 nM
GI50 (DU-145 prostate): 1820 nM
TGI (DU-145 prostate): 6460 nM
GI50 (HT29 colon): 4390 nM
TGI (HT29 colon): 19400 nM
GI50 (NCI-H23 lung): 3360 nM
TGI (NCI-H23 lung): 19000 nM
GI50 (SF-268 CNS): 2050 nM
TGI (SF-268 CNS): 17900 nM
GI50 (HS 578T breast): 4640 nM
TGI (HS 578T breast): 44800 nM
GI50 (KM12 colon): 5500 nM
TGI (KM12 colon): 20000 nM
GI50 (OVCAR-5 ovarian): 12100 nM
TGI (OVCAR-5 ovarian): 30200 nM
GI50 (SW-620 colon): 2260 nM
TGI (SW-620 colon): 18500 nM
GI50 (T-47D breast): 3550 nM
TGI (T-47D breast): 19400 nM
GI50 (LOX IMVI melanoma): 1370 nM
TGI (LOX IMVI melanoma): 3100 nM
GI50 (HL-60(TB) leukemia): 529 nM
TGI (HL-60(TB) leukemia): 3260 nM
GI50 (HCT-116 colon): 2460 nM
TGI (HCT-116 colon): 18800 nM
GI50 (A549 NSCLC): 1500 nM
TGI (A549 NSCLC): 12800 nM
GI50 (OVCAR-3 ovarian): 3860 nM
TGI (OVCAR-3 ovarian): 15300 nM
GI50 (BT-549 breast): 5920 nM
TGI (BT-549 breast): 25300 nM
GI50 (U251 CNS): 2000 nM
TGI (U251 CNS): 11700 nM
GI50 (CCRF-CEM leukemia): 1600 nM
TGI (CCRF-CEM leukemia): 16200 nM
GI50 (M14 melanoma): 3580 nM
TGI (M14 melanoma): 21700 nM
GI50 (RPMI-8226 leukemia): 2170 nM
TGI (RPMI-8226 leukemia): 7580 nM
GI50 (K-562 leukemia): 3020 nM
TGI (K-562 leukemia): 17500 nM
GI50 (NCI-H226 lung): 3230 nM
TGI (NCI-H226 lung): 30800 nM
GI50 (SN12C renal): 1740 nM
TGI (SN12C renal): 15800 nM
GI50 (IGROV1 ovarian): 3300 nM
TGI (IGROV1 ovarian): 22200 nM
GI50 (HCT-15 colon): 2850 nM
TGI (HCT-15 colon): 18600 nM
GI50 (COLO 205 colon): 3350 nM
TGI (COLO 205 colon): 16200 nM
GI50 (MCF7 breast): 2780 nM
TGI (MCF7 breast): 14700 nM
GI50 (OVCAR-8 ovarian): 2640 nM
TGI (OVCAR-8 ovarian): 23800 nM
GI50 (SK-OV-3 ovarian): 3310 nM
TGI (SK-OV-3 ovarian): 13900 nM
GI50 (UO-31 renal): 2680 nM
TGI (UO-31 renal): 13200 nM
GI50 (786-0 renal): 3410 nM
TGI (786-0 renal): 22300 nM
GI50 (NCI-H460 lung): 517 nM
TGI (NCI-H460 lung): 2790 nM
GI50 (ACHN renal): 1130 nM
TGI (ACHN renal): 13000 nM
GI50 (MOLT-4 leukemia): 747 nM
TGI (MOLT-4 leukemia): 4970 nM

COc1ccc(S(=O)(=O)N(Cc2ccc3c(n2)C=CC(C)(C)O3)C2CCC2)cc1OC
GI50 (MALME-3M melanoma): < 10 nM
TGI (MALME-3M melanoma): 20.9 nM
GI50 (TK-10 renal): < 10 nM
TGI (TK-10 renal): 1590 nM
GI50 (MDA-MB-231 breast): < 10 nM
TGI (MDA-MB-231 breast): 13.1 nM
GI50 (OVCAR-4 ovarian): < 10 nM
TGI (OVCAR-4 ovarian): 266 nM
GI50 (MDA-MB-435): < 10 nM
TGI (MDA-MB-435): 422 nM
GI50 (SNB-75 CNS): < 10 nM
TGI (SNB-75 CNS): 238 nM
GI50 (NCI/ADR-RES ovarian): 130 nM
TGI (NCI/ADR-RES ovarian): > 100000 nM
GI50 (PC-3 prostate): < 10 nM
TGI (PC-3 prostate): 2370 nM
GI50 (SF-539 CNS): < 10 nM
TGI (SF-539 CNS): 378 nM
GI50 (CAKI-1 renal): < 10 nM
TGI (CAKI-1 renal): 145 nM
GI50 (SR leukemia): < 10 nM
TGI (SR leukemia): 32.4 nM
GI50 (HOP-62 NSCLC): < 10 nM
TGI (HOP-62 NSCLC): 1290 nM
GI50 (NCI-H522 lung): < 10 nM
TGI (NCI-H522 lung): 76.8 nM
GI50 (SK-MEL-5 melanoma): < 10 nM
TGI (SK-MEL-5 melanoma): 37.6 nM
GI50 (UACC-257 melanoma): < 10.5 nM
TGI (UACC-257 melanoma): 239 nM
GI50 (SK-MEL-28 melanoma): < 10 nM
TGI (SK-MEL-28 melanoma): 461 nM
GI50 (RXF 393 renal): < 10 nM
TGI (RXF 393 renal): 222 nM
GI50 (HCC-2998 colon): < 10 nM
TGI (HCC-2998 colon): 3790 nM
GI50 (A498 renal): < 10 nM
TGI (A498 renal): 43.1 nM
GI50 (SF-295 CNS): 13.4 nM
TGI (SF-295 CNS): 542 nM
GI50 (DU-145 prostate): < 10 nM
TGI (DU-145 prostate): 3450 nM
GI50 (HT29 colon): 21 nM
TGI (HT29 colon): > 36600 nM
GI50 (NCI-H23 lung): 14.5 nM
TGI (NCI-H23 lung): 1050 nM
GI50 (SF-268 CNS): < 10 nM
TGI (SF-268 CNS): 1130 nM
GI50 (HS 578T breast): < 10 nM
TGI (HS 578T breast): 67.7 nM
GI50 (KM12 colon): < 10 nM
TGI (KM12 colon): > 37700 nM
GI50 (OVCAR-5 ovarian): < 10 nM
TGI (OVCAR-5 ovarian): 7250 nM
GI50 (SW-620 colon): < 10 nM
TGI (SW-620 colon): > 35100 nM
GI50 (T-47D breast): < 10 nM
TGI (T-47D breast): 231 nM
GI50 (LOX IMVI melanoma): < 10 nM
TGI (LOX IMVI melanoma): 176 nM
GI50 (HL-60(TB) leukemia): < 10 nM
TGI (HL-60(TB) leukemia): 24.9 nM
GI50 (HCT-116 colon): < 10 nM
TGI (HCT-116 colon): 4050 nM
GI50 (A549 NSCLC): 23.3 nM
TGI (A549 NSCLC): 1660 nM
GI50 (OVCAR-3 ovarian): < 10 nM
TGI (OVCAR-3 ovarian): 95.5 nM
GI50 (BT-549 breast): < 10 nM
TGI (BT-549 breast): 171 nM
GI50 (U251 CNS): < 10 nM
TGI (U251 CNS): 883 nM
GI50 (HOP-92 NSCLC): < 10 nM
TGI (HOP-92 NSCLC): < 10 nM
GI50 (CCRF-CEM leukemia): < 10 nM
TGI (CCRF-CEM leukemia): 92.2 nM
GI50 (M14 melanoma): < 10 nM
TGI (M14 melanoma): 228 nM
GI50 (UACC-62 melanoma): < 10 nM
TGI (UACC-62 melanoma): 50 nM
GI50 (RPMI-8226 leukemia): 33.1 nM
TGI (RPMI-8226 leukemia): 163 nM
GI50 (K-562 leukemia): < 10 nM
TGI (K-562 leukemia): > 100000 nM
GI50 (NCI-H226 lung): 10.1 nM
TGI (NCI-H226 lung): 3750 nM
GI50 (SN12C renal): < 10 nM
TGI (SN12C renal): 161 nM
GI50 (IGROV1 ovarian): < 10 nM
TGI (IGROV1 ovarian): 262 nM
GI50 (HCT-15 colon): 15.4 nM
TGI (HCT-15 colon): > 33600 nM
GI50 (COLO 205 colon): < 10 nM
TGI (COLO 205 colon): 53.7 nM
GI50 (MCF7 breast): 16.9 nM
TGI (MCF7 breast): > 38200 nM
GI50 (OVCAR-8 ovarian): < 10 nM
GI50 (SK-OV-3 ovarian): < 10 nM
TGI (SK-OV-3 ovarian): < 10 nM
GI50 (UO-31 renal): < 10 nM
TGI (UO-31 renal): 871 nM
GI50 (786-0 renal): < 10 nM
TGI (786-0 renal): 374 nM
GI50 (NCI-H460 lung): 19.6 nM
GI50 (ACHN renal): < 10 nM
TGI (ACHN renal): 73.4 nM
GI50 (MOLT-4 leukemia): < 10 nM
TGI (MOLT-4 leukemia): 35.5 nM
